Data published in patent publication US20240148821A1, “PHARMACEUTICAL USE OF CYCLIC PEPTIDE COMPOUND” (CHUGAI SEIYAKU KABUSHIKI KAISHA, priority 2021, published 2024).
Numbered stars: 1 amine (or outer) side, 2 acyl side, 3 side chain; on linkers, the order of the positions; unused ones are H or OH. Bridge positions count the residues as written; N and C are the ends. Square brackets hold non-standard residues; d marks the D form. Peptide text beside a SMILES is read from it. * marks the point of attachment. hPhe(3-Cl-4-CF3) = N[C@@H](CCc1ccc(C(F)(F)F)c(Cl)c1)C(=O)O; hPhe(4-CF3) = N[C@@H](CCc1ccc(C(F)(F)F)cc1)C(=O)O; Pro(cis-4-Ph) = O=C(O)[C@@H]1C[C@H](c2ccccc2)CN1; NMePhe(4-Cl) = CN[C@@H](Cc1ccc(Cl)cc1)C(=O)O; X51 = CN([C@@](C)(Cc1ccccc1)C(=O)[*:2])[*:1]; NMeNva(5,5-F2) = CN[C@@H](CCC(F)F)C(=O)O; Phe(3-I) = N[C@@H](Cc1cccc(I)c1)C(=O)O; NMeY = CN[C@@H](Cc1ccc(O)cc1)C(=O)O; NMeCha = CN[C@@H](CC1CCCCC1)C(=O)O; NMeChg = CN[C@H](C(=O)O)C1CCCCC1; NMeF = CN[C@@H](Cc1ccccc1)C(=O)O; NMeD = CN[C@@H](CC(=O)O)C(=O)O; NMeL = CN[C@@H](CC(C)C)C(=O)O; NMeV = CN[C@H](C(=O)O)C(C)C; d(β3hA) = C[C@@H](N)CC(=O)O; NMeS = CN[C@@H](CO)C(=O)O; NMeA = CN[C@@H](C)C(=O)O; Nle = CCCC[C@H](N)C(=O)O; Piperidide = C1CCN(*)CC1; Ac5c = NC1(C(=O)O)CCCC1; Aze = O=C(O)[C@@H]1CCN1; CH2CMe2OH = CC(C)(O)C*; Ac3c = NC1(C(=O)O)CC1; Aib = CC(C)(N)C(=O)O; Isopentyl = CC(C)CC*; βAla = NCCC(=O)O; Sar = CNCC(=O)O; Propyl = CCC*

system: Human pancreatic cancer cell line AsPC-1 (G12D mutation Kras); assay: AsPC-1 cell growth inhibition (AsPC-1 CGI); type: cell-based; conditions: read-out: AsPC-1 cell growth inhibition, 50% growth inhibitory concentration (IC50 value); 96 hours, CellTiter-Glo, values classified in ranges
Method: Test compounds were serially dilated with dimethyl sulfoxide, and 200 nL was then dispensed to a U-bottom 96-well plate using Labcyte Echo. […] The cell suspension was dispensed to a. plate containing a test compound at 100 μL per well and incubated at 37° C. in a 5% carbon dioxide gas incubator. 96 hours later, 80 μL of CellTiter-Glo (Promega) was added to each well and fluorescence was measured.

Compound	IC50
CC[C@H](C)[C@@H]1NC(=O)[C@H](CC(C)C)N(C)C(=O)C[C@@H](C)NC(=O)[C@H](CC(C)C)N(C)C(=O)C(C)(C)NC(=O)[C@H](COCC(C)(C)O)N(C)C(=O)[C@H](CCc2ccc(C(F)(F)F)c(Cl)c2)NC(=O)CN(C)C(=O)[C@H](COCCC(C)C)N(C)C(=O)CN(C)C(=O)CN(C)C1=O [Compound 1546] (cyclo([Aib][NMeL][d(β3hA)][NMeL]I[Sar][Sar][NMeS](Isopentyl)[Sar][hPhe(3-Cl-4-CF3)][NMeS](CH2CMe2OH)))	> 500 nM
CCCOC[C@H]1C(=O)N(C)[C@H](C(=O)N2CCCCC2)CC(=O)N(C)[C@@H](CC(C)C)C(=O)N[C@@H]([C@@H](C)CC)C(=O)N(C)CC(=O)N(C)CC(=O)N(C)[C@@H](CC2CCCCC2)C(=O)N(C)CC(=O)N[C@@H](CCc2ccc(C(F)(F)F)c(Cl)c2)C(=O)N2CCC[C@H]2C(=O)NC2(CCCC2)C(=O)N1C [Compound 1771] ([NMeL]I[Sar][Sar][NMeCha][Sar][hPhe(3-Cl-4-CF3)]P[Ac5c][NMeS](Propyl)[NMeD]-Piperidide; lactam N-11)	> 500 nM
CC[C@H](C)[C@@H]1NC(=O)[C@H](CC(C)C)N(C)C(=O)C[C@@H](C(=O)N2CCCCC2)N(C)C(=O)[C@H](C2CCCCC2)N(C)C(=O)C2(CCCC2)NC(=O)[C@@H]2C[C@H](c3ccccc3)CN2C(=O)[C@H](CCc2ccc(C(F)(F)F)c(Cl)c2)NC(=O)CN(C)C(=O)[C@H](CC2CCCCC2)N(C)C(=O)[C@@H]2CCCN2C(=O)CN(C)C1=O [Compound 1096] ([NMeL]I[Sar]P[NMeCha][Sar][hPhe(3-Cl-4-CF3)][Pro(cis-4-Ph)][Ac5c][NMeChg][NMeD]-Piperidide; lactam N-11)	> 500 nM
CC[C@H](C)[C@@H]1NC(=O)[C@H](C(C)C)N(C)C(=O)C[C@@H](C)NC(=O)[C@H](CC(C)C)N(C)C(=O)C2(CCCC2)NC(=O)[C@H](CC(C)C)N(C)C(=O)[C@H](CCc2ccc(C(F)(F)F)c(Cl)c2)NC(=O)CN(C)C(=O)[C@H](Cc2ccc(Cl)cc2)N(C)C(=O)[C@@H]2CCN2C(=O)CN(C)C1=O [Compound 158] (cyclo([Ac5c][NMeL][d(β3hA)][NMeV]I[Sar][Aze][NMePhe(4-Cl)][Sar][hPhe(3-Cl-4-CF3)][NMeL]))	> 500 nM
CCCC[C@@H]1NC(=O)[C@H](Cc2cccc(I)c2)NC(=O)CN(C)C(=O)[C@H](Cc2ccc(OC)cc2)N(C)C(=O)CN(C)C(=O)CN(C)C(=O)[C@H]([C@@H](C)CC)NC(=O)[C@H](CC(C)C)N(C)C(=O)C[C@@H](C(=O)N2CCCCC2)N(C)C(=O)[C@H](CC(C)C)NC(=O)[C@](C)(Cc2ccccc2)N(C)C1=O [Compound 125] ([NMeL]I[Sar][Sar][NMeY](Me)[Sar][Phe(3-I)][Nle][X51]L[NMeD]-Piperidide; lactam N-11)	> 500 nM
CC[C@H](C)[C@@H]1NC(=O)[C@H](CC(C)C)N(C)C(=O)CCNC(=O)[C@H](C(C)C)N(C)C(=O)C2(CCCC2)NC(=O)[C@@H]2CCCN2C(=O)[C@H](CCc2ccc(C(F)(F)F)c(Cl)c2)NC(=O)CN(C)C(=O)[C@H](CC2CCCCC2)N(C)C(=O)CN(C)C(=O)CN(C)C1=O [Compound 979] (cyclo([Ac5c][NMeV][βAla][NMeL]I[Sar][Sar][NMeCha][Sar][hPhe(3-Cl-4-CF3)]P))	> 500 nM
CC[C@H](C)[C@@H]1NC(=O)[C@H](C)N(C)C(=O)C[C@@H](C)NC(=O)[C@H](C(C)C)N(C)C(=O)[C@H](Cc2ccccc2)N(C)C(=O)[C@H](CC(C)C)N(C)C(=O)[C@H](CCc2ccc(C(F)(F)F)cc2)NC(=O)CN(C)C(=O)[C@H](Cc2ccc(Cl)cc2)N(C)C(=O)CN(C)C(=O)[C@@H]2CCN2C1=O [Compound 71] (cyclo([Aze][Sar][NMePhe(4-Cl)][Sar][hPhe(4-CF3)][NMeL][NMeF][NMeV][d(β3hA)][NMeA]I))	> 500 nM
CC[C@H](C)[C@@H]1NC(=O)[C@H](CC(C)C)N(C)C(=O)C[C@@H](C(=O)N2CCCCC2)N(C)C(=O)[C@H](C(C)C)N(C)C(=O)C2(CC2)NC(=O)[C@@H]2CCCN2C(=O)[C@H](CCc2ccc(C(F)(F)F)c(Cl)c2)NC(=O)CN(C)C(=O)[C@H](CC2CCCCC2)N(C)C(=O)CN(C)C(=O)CN(C)C1=O [Compound 468] ([NMeL]I[Sar][Sar][NMeCha][Sar][hPhe(3-Cl-4-CF3)]P[Ac3c][NMeV][NMeD]-Piperidide; lactam N-11)	> 500 nM
CC[C@H](C)[C@@H]1NC(=O)[C@H](CC(C)C)N(C)C(=O)C[C@@H](C(=O)N2CCCCC2)N(C)C(=O)[C@H](CCC(F)F)N(C)C(=O)C2(CCCC2)NC(=O)[C@@H]2CCCN2C(=O)[C@H](CCc2ccc(C(F)(F)F)c(Cl)c2)NC(=O)CN(C)C(=O)[C@H](CC2CCCCC2)N(C)C(=O)CN(C)C(=O)CN(C)C1=O [Compound 1782] ([NMeL]I[Sar][Sar][NMeCha][Sar][hPhe(3-Cl-4-CF3)]P[Ac5c][NMeNva(5,5-F2)][NMeD]-Piperidide; lactam N-11)	> 500 nM
